Assays:
Type in all cases: in vivo, Wistar rats
[1] = Body weight during 14-day oral treatment before heat stroke
Procedure: Eight male rats of Wistar/Han IGS strain (Charles River Laboratories, 69-St-Germain sur l'Arbresle—France) weighing 300 to 320 g are used. On receipt, the rats are housed, four to a cage, in 48×27×20 cm polycarbonate cages (U.A.R., 91-Epinay-Sur-Orge, France) in a controlled environment (50±5% humidity; temperature 22±1° C.; lighting from 20:00 h to 08:00 h, i.e. an inverted lightness/darkness cycle: 12 h/12 h).
The rats are weighed each day for the fourteen days of the treatment in order to determine their body weight change.

leukocyte free radicals = assay: Free radicals in the blood after heat stroke (pholasine chemiluminescence); settings: after heat stroke 40° C., 120 min; 14 days oral CPE1 22.9, CPE2 24.3, vitamin E 200 mg/kg/day
Procedure: (§1) After each daily administration of the product, the rats have free access to standard food granules.
(§2) On the 16th day, after fasting over night, the conscious rats of the various groups, with the exception of those of the vehicle group, are exposed to a heat stroke by placing them in a temperature-controlled chamber at 40° C. with a relative humidity of 50% for 120 minutes. The rats expressed their normal heat-regulating behavior. Immediately after the heat stroke, the rats with a rectal temperature of between 41.5° C. and 42° C. are included in the study. The rats returned to their cage at 22° C.
On the 16th day, 500 μl of blood samples were collected from the tail vein of 12 rats of each group, into tubes containing heparin to check the increase in free radicals after exposure to the heat stroke. On the basis of the chemiluminescence of pholasine, a photo-protein from the marine mollusc Pholas dactylus, the production of leukocyte free radicals was measured using a kit (Knight Scientific, Cell Activation Test Kits for Whole Blood with Adjuvant-K) by activation of the NADPH oxydase complex in diluted blood (In CytoTox laboratory, Nancy, France).

[2] = tested on: cognitive performances after heat stroke; assay: Light extinction test after heat stroke; settings: day 18, after heat stroke
Procedure: as §1, §2
Three days after exposure to the heat stroke, on day 18 (D18), the rats are tested for the preventive antioxidant effects of the two CPEs on the learning performances, by using the light extinction test. The experimental device consists of a brightly lit cage (50×40×37 cm). The level of lighting in the test cage is 1200 lux.
During the test session, the rats are placed individually in the cage for 20 minutes to learn how to control the light environment.

[3] = tested on: cognitive performances after heat stroke; assay: Morris water labyrinth test after heat stroke
Procedure: as §1, §2
The Morris water labyrinth (1984) makes it possible to test the capacity for spatial orientation and the processes of learning and memorization. On the 20th and 21st days (D20 and D21), the rats are tested in the water labyrinth device to evaluate the spatial learning performances and their long-term memory. The experimental procedure consists in training rats, on the 20th day, to find a hidden platform (10 mm below the surface of the water) at a fixed point in the water tank (150 cm in diameter) in a series of five tests starting from the same starting point.
During the first test, the platform is placed against the wall of the tank. During the second test, the platform is placed 5 cm from the wall of the tank to allow the rats to find the platform easily. During the following three tests, the platform is placed 10 cm from the wall of the tank. Each test is followed by a 30-second rest period on the platform.
On the 21st day, the platform is placed at a distance from the wall of the tank in the same place as during the session on the 20th day and the long-term memory of the rats is tested in a single test.
The variable recorded in the water tank is the latency time required to get out of the water and reach the platform serving as a refuge arranged in the basin.

## Cc1c(C)c2c(c(C)c1O)CC[C@@](C)(CCC[C@H](C)CCC[C@H](C)CCCC(C)C)O2 [Vitamin E, α-tocopherol]
[1]; Day 1, oral daily CPE1 22.9, CPE2 24.3, vitamin E 200 mg/kg
  Body weight: 320.9 ± 15.4 g
[1]; Day 3
  Body weight: 328.9 ± 15.8 g
[1]; Day 4
  Body weight: 330.6 ± 15.7 g
[1]; Day 5
  Body weight: 333.9 ± 16.5 g
[1]; Day 6
  Body weight: 336.6 ± 15.9 g
[1]; Day 7
  Body weight: 339.4 ± 17.3 g
[1]; Day 8
  Body weight: 342.1 ± 17.2 g
[1]; Day 11
  Body weight: 351.6 ± 18.0 g
[1]; Day 12
  Body weight: 354.6 ± 18.8 g
Leukocyte free radicals
  Free radical content in the plasma on the 16th day (Mean ± SEM): 311.15 ± 20.56 mV
[2]
  Discrimination of the levers: pressed the active lever more than the inactive lever
  Number of active lever presses (ALP) (mean ± SEM): 27.28 ± 3.54
  Number of inactive lever presses (ILP) (mean ± SEM): 17.60 ± 2.47
[2]; n = 16/group
  Total number of lever presses (Mean ± SEM): 42.38 ± 5.76
[3]; Day 20, Test 1
  Latency for reaching the platform (Mean ± SEM): 51.75 ± 6.45 s
[3]; Day 20, Test 2
  Latency for reaching the platform (Mean ± SEM): 25.38 ± 4.94 s
[3]; Day 20, Test 3
  Latency for reaching the platform (Mean ± SEM): 26.44 ± 5.20 s
[3]; Day 20, Test 4
  Latency for reaching the platform (Mean ± SEM): 17.75 ± 2.44 s
[3]; Day 20, Test 5
  Latency for reaching the platform (Mean ± SEM): 13.56 ± 1.37 s
[3]; Day 21, Test 6
  Latency for reaching the platform (Mean ± SEM): 14.69 ± 2.22 s

Source: patent publication US8435576B2, “Use of cocoa polyphenols for treating a prostate hyperplasia, a specific cocoa extract and applications” (Barry Callebaut AG, priority 2005, dated 2013)
